From the supplement of paper PMC6045584
± gives the standard deviation of the averaged measurements.

Tests used:
DASATINIB = compound: Cc1nc(Nc2ncc(C(=O)Nc3c(C)cccc3Cl)s2)cc(N2CCN(CCO)CC2)n1 [DASATINIB]; test: surviving fraction relative to DMSO-only wells; higher = less growth inhibition; details: exposure time: 5 days
Method in brief: (§1)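 Tumour cell lines were seeded in log phase at 250–500 cells per well into 384-well plates. Starting 24 hours later, inhibitors were present continuously for five days at 0.5, 1, 5, 10, 50, 100, 500 and 1000 nM. Surviving fraction, from CellTiter-Glo luminescence, is normalised to the median of DMSO-only wells. Three screens per line were required, with replicate Pearson r >0.7 and median Z' >0.3 for a line to be kept.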

[1] = compound: C[C@@H](Oc1cc(-c2cnn(C3CCNCC3)c2)cnc1N)c1c(Cl)ccc(F)c1Cl; test: as above; details: exposure time: 5 days
Method in brief: as §1

| Test System | surviving fraction (DASATINIB; 0.5 nM) | surviving fraction (DASATINIB; 1 nM) | surviving fraction (DASATINIB; 5 nM) | surviving fraction (DASATINIB; 10 nM) | surviving fraction (DASATINIB; 50 nM) | surviving fraction (DASATINIB; 100 nM) | surviving fraction (DASATINIB; 500 nM) | surviving fraction (DASATINIB; 1000 nM) | surviving fraction ([1]; 1 nM) | surviving fraction ([1]; 5 nM) | surviving fraction ([1]; 10 nM) | surviving fraction ([1]; 50 nM) | surviving fraction ([1]; 100 nM) | surviving fraction ([1]; 500 nM) | surviving fraction ([1]; 1000 nM) | surviving fraction ([1]; 0.5 nM) |
| --- | --- | --- | --- | --- | --- | --- | --- | --- | --- | --- | --- | --- | --- | --- | --- | --- |
| SG31 HEADNECK | 0.892 ± 0.091 | 0.878 ± 0.19 | 0.722 ± 0.013 | 0.649 ± 0.081 | 0.535 ± 0.02 | 0.44 ± 0.042 | 0.391 ± 0.045 | 0.373 ± 0.016 | 0.821 ± 0.04 | 0.821 ± 0.059 | 0.843 ± 0.18 | 0.847 ± 0.063 | 0.845 ± 0.088 | 0.755 ± 0.061 | 0.485 ± 0.07 |  |
| SG32 HEADNECK | 0.606 ± 0.048 | 0.653 ± 0.14 | 0.564 ± 0.11 | 0.438 ± 0.06 | 0.395 ± 0.09 | 0.171 ± 0.037 | 0.155 ± 0.015 | 0.147 ± 0.022 | 0.907 ± 0.093 | 0.931 ± 0.15 | 0.799 ± 0.11 | 0.955 ± 0.15 |  | 0.475 ± 0.06 | 0.359 ± 0.092 | 0.809 ± 0.17 |
| SG43 HEADNECK | 0.98 ± 0.19 | 1.02 ± 0.16 | 0.592 ± 0.2 | 0.581 ± 0.2 | 0.337 ± 0.078 | 0.273 ± 0.13 | 0.206 ± 0.023 | 0.177 ± 0.054 | 1.22 ± 0.16 |  | 1.09 ± 0.22 | 0.946 ± 0.37 | 0.816 ± 0.13 | 0.564 ± 0.14 | 0.256 ± 0.082 | 1.14 ± 0.1 |
| SIHA CERVIX | 0.876 ± 0.016 | 0.806 ± 0.013 | 0.74 ± 0.026 | 0.742 ± 0.019 | 0.772 ± 0.046 | 0.648 ± 0.052 | 0.561 ± 0.0062 | 0.543 ± 0.027 | 0.931 ± 0.01 |  | 0.931 ± 0.034 | 0.99 ± 0.011 | 1.07 ± 0.068 | 0.676 ± 0.042 | 0.628 ± 0.075 | 0.92 ± 0.038 |
| SJSA1 BONE | 1.23 ± 0.065 | 1.14 ± 0.044 | 1.16 ± 0.19 | 1.24 ± 0.1 | 0.0427 ± 0.0032 | 1.6 ± 0.093 | 1.7 ± 0.029 | 0.174 ± 0.019 | 0.9053 ± 0.0031 | 0.912 ± 0.062 | 0.935 ± 0.023 | 1.06 ± 0.069 | 1.05 ± 0.05 | 0.889 ± 0.053 | 0.622 ± 0.0085 | 0.881 ± 0.019 |
| SKBR3 BREAST | 0.718 ± 0.024 | 0.802 ± 0.1 | 0.722 ± 0.097 | 0.822 ± 0.063 | 1.01 ± 0.093 | 1.1 ± 0.086 | 1.13 ± 0.12 | 0.942 ± 0.022 | 0.814 ± 0.075 |  | 0.859 ± 0.071 | 0.997 ± 0.12 |  | 0.759 ± 0.035 |  | 0.731 ± 0.039 |
| SNU475 LIVER | 0.799 ± 0.0098 | 0.774 ± 0.018 | 0.602 ± 0.021 | 0.519 ± 0.036 | 0.469 ± 0.02 | 0.349 ± 0.021 | 0.242 ± 0.025 | 0.255 ± 0.032 |  | 0.829 ± 0.049 |  | 0.927 ± 0.039 |  | 0.853 ± 0.031 | 0.662 ± 0.04 | 0.8177 ± 0.0046 |
| SUM44 BREAST | 0.88 ± 0.035 | 0.824 ± 0.085 | 0.941 ± 0.062 | 0.865 ± 0.13 | 1.14 ± 0.23 | 1.12 ± 0.15 | 1.09 ± 0.13 | 0.99 ± 0.055 | 0.874 ± 0.056 | 0.983 ± 0.021 | 0.935 ± 0.029 |  | 1.04 ± 0.026 | 0.892 ± 0.077 | 0.798 ± 0.046 | 0.865 ± 0.038 |
| SUM149 BREAST | 0.774 ± 0.058 | 0.817 ± 0.082 | 0.607 ± 0.043 | 0.563 ± 0.036 | 0.292 ± 0.018 | 0.252 ± 0.011 | 0.177 ± 0.02 | 0.174 ± 0.018 | 0.877 ± 0.094 |  | 0.86 ± 0.045 |  | 0.893 ± 0.1 | 0.73 ± 0.064 | 0.415 ± 0.029 | 0.897 ± 0.12 |
